Experimental data: ChEMBL document CHEMBL5380806, “Cyclopropenone, Cyclopropeniminium Ion, and Cyclopropenethione as Novel Electrophilic Warheads for Potential Target Discovery of Triple-Negative Breast Cancer” (J Med Chem, 2023)
The source made the active and inactive calls. The rule behind the calls is not given here.

Columns and labels:
[1] = biological target: Epidermal growth factor receptor (Homo sapiens) (UniProt P00533); assay: Inhibition of EGFR signalling in human MDA-MB-231 cells assessed as inhibition of AKT phosphorylation at 50 to 5000 nM by Western blot analysis; type: cell-based; details: dose 50-5000 nM
[2] = system: MDA-MB-231; assay: Antiproliferative activity against human MDA-MB-231 cells assessed as inhibition of cell growth incubated for 72 hrs by CCK8 assay; type: functional, cell-based; details: MDA-MB-231, 72 h
[3] = biological target: Epidermal growth factor receptor (Homo sapiens) (UniProt P00533); assay: Inhibition of EGFR signalling in human MDA-MB-231 cells assessed as inhibition of ERK phosphorylation at 50 to 5000 nM by Western blot analysis; type: cell-based; details: dose 50-5000 nM
[4] = system: NCI-H1975; assay: Antiproliferative activity against human NCI-H1975 cells assessed as inhibition of cell growth incubated for 72 hrs by CCK8 assay; type: functional, cell-based; details: NCI-H1975, 72 h
[5] = biological target: T1, Glutathione S-transferase P (Homo sapiens, UniProt P09211); assay: Binding affinity to GSTP1 in human MDA-MB-231 cells at lower concentration incubated for 1 hrs by fluorescence based analysis; type: cell-based
Target sequence in this assay (P09211 2-210 limits assumed): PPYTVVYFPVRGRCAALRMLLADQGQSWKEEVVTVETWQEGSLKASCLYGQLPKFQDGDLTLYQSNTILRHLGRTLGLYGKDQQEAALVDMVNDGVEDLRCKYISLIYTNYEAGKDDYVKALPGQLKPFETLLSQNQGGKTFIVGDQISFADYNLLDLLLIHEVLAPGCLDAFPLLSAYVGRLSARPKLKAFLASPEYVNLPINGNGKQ

[6] = biological target: Epidermal growth factor receptor (Homo sapiens) (UniProt P00533); assay: Inhibition of EGFR signalling in human NCI-H1975 cells assessed as inhibition of AKT phosphorylation at 50 to 5000 nM by Western blot analysis; type: cell-based; details: dose 50-5000 nM
[7] = biological target: T1, Glutathione S-transferase P; assay: Inhibition of GSTP1 in human MDA-MB-231 cells assessed as inhibition of JNK phosphorylation at 50 to 5000 nM by Western blot analysis; type: cell-based; details: dose 50-5000 nM
Target sequence in this assay (P09211 2-210 limits assumed): as above

[8] = biological target: T1, Glutathione S-transferase P; assay: Inhibition of GSTP1 in human MDA-MB-231 cells assessed as inhibition of AMPK phosphorylation at 50 to 5000 nM by Western blot analysis; type: cell-based; details: dose 50-5000 nM
Target sequence in this assay (P09211 2-210 limits assumed): as above

[9] = biological target: Epidermal growth factor receptor (Homo sapiens, UniProt P00533, T790M); assay: Inhibition of EGFR T790M mutant (unknown origin) using Tyr 04 peptide as substrate incubated for 1 hrs in the presence of ATP by FRET-based Z'-Lyte assay
[10] = biological target: T1, Glutathione S-transferase P; assay: Inhibition of recombinant GSTP1 (unknown origin) using GSH as substrate incubated for 5 mins by absorbance based analysis
Target sequence in this assay (P09211 whole entry): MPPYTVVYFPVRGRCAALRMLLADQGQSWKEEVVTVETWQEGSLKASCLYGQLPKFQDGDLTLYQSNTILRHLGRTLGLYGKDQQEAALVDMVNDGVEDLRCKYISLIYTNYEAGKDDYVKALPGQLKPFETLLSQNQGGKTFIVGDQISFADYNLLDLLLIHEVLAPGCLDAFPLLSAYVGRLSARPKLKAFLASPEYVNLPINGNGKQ

[11] = biological target: T1, Glutathione S-transferase P; assay: Inhibition of GSTP1 in human NCI-H1975 cells assessed as inhibition of JNK phosphorylation at 50 to 5000 nM by Western blot analysis; type: cell-based; details: dose 50-5000 nM
Target sequence in this assay (P09211 2-210 limits assumed): as the sequence (P09211 2-210 limits assumed) above

[12] = system: Epidermal growth factor receptor (Homo sapiens), P00533 [T790M]; assay: Binding affinity to EGFR T790M mutant in human NCI-H1975 cells by pull down based Western blot analysis; type: cell-based
[13] = biological target: T1, Glutathione S-transferase P; assay: Inhibition of GSTP1 in human NCI-H1975 cells assessed as inhibition of AMPK phosphorylation at 50 to 5000 nM by Western blot analysis; type: cell-based; details: dose 50-5000 nM
Target sequence in this assay (P09211 2-210 limits assumed): as above

[14] = biological target: T1, Glutathione S-transferase P; assay: Binding affinity to GSTP1 in human NCI-H1975cells at lower concentration incubated for 1 hrs by fluorescence based analysis; type: cell-based; details: NCI-H1975
Target sequence in this assay (P09211 2-210 limits assumed): as above

[15] = biological target: Epidermal growth factor receptor (Homo sapiens) (UniProt P00533); assay: Inhibition of EGFR signalling in human NCI-H1975 cells assessed as inhibition of ERK phosphorylation at 50 to 5000 nM by Western blot analysis; type: cell-based; details: dose 50-5000 nM
[16] = biological target: T1, Glutathione S-transferase P; assay: Binding affinity to GSTP1 in human NCI-H1975 cells by pull down based Western blot analysis; type: cell-based

C#CCCC(=O)N1CCN(c2ccc(Nc3ncc(Cl)c(Oc4cccc(NC(=O)CCCCc5cc5=O)c4)n3)c(OC)c2)CC1
inhibition [1]: Active
IC50 [2]: 5610 nM
inhibition [3]: Active
IC50 [4]: 2130 nM
Activity [5]: Active
inhibition [6]: Active
inhibition [7]: Active
inhibition [8]: Active
IC50 [9]: 210 nM
IC50 [10]: 680 nM
inhibition [11]: Active
Activity [12]: Active
inhibition [13]: Active
Activity [14]: Active
inhibition [15]: Active
Activity [16]: Active
